This is an account of results in patent publication US11851631B2, “Household product delivering cooling sensations” (TAKASAGO INTERNATIONAL CORPORATION, priority 2016, dated 2023).

In one assay the target is T1, human TRPM8 (Homo sapiens, UniProt Q7Z2W7).
T1 construct: expressed in transfected cells; host or cells: HEK-293
Description: TRPM8 activation, Fluo-8 calcium fluorescence (FLIPR) in HEK-293 cells. Format: cell-based. The conditions noted are these: HEK-293 cells stably transfected with human TRPM8; for EC50: normalised to WS3 EC100. Here is the method:
HEK-293 (Human Embryonic Kidney) cells stably transfected with human TRPM8 were grown in a culture medium of EMEM (minimum Essential Medium Eagle) with Earl's salts balanced salt solution (Lonza catalogue No BE12-125F), 5 mL of 200 mM Ultraglutamine 1 (Lonza Catalogue No BE17-605E/U1), 5 mL of 100× Penicillin/Streptomycin (Lonza Catalogue No DE17-602E) 50 mL of Fetal bovine serum (Euroclone Cat No ECS0180L) 2 mL of 100 mg/mL Genticin sulphate (G418 sulphate InvivoGen CatAnt-gn-5).
10,000 cells/well were seeded in a 384 MTP in complete medium. Then after 24 h the culture medium was manually removed. The cells were loaded with 20 μL/well of 0.5× Fluo-8 NW dye in standard Tyrode's buffer (Screen Quest™ Fluo-8 No wash Calcium assay kit supplied by AAT Bioquest catalogue No 26316) The plate was incubated for 1 h at room temperature in the dark. 10 μL/well of test compounds and controls were injected with the FLIPR^TETRA (Molecular Devices) and the emitted fluorescence signal was recorded at 520 nm for 3 min. The compound multiwall plate contained the samples at 8 different doses in quadruplicate data points. The dose response of the samples were performed starting from 100 mM concentration in 100% DMSO with a serial dilution of 1:2 and then diluted in assay buffer at the final concentration of 100 μM, 50 μM, 25 μM, 12.5 μM, 6 μM, 3 μM, 1.5 μM, and 0.7 μM.
In the compound plate was also present a dose response of the reference agonist N ethyl-p-menthane-3-carboxamide (WS3) at 8 concentrations and in duplicate. This reference control dosed as 16 wells (duplicates for each concentration) of reference agonist at EC100 correspond to the MAX signal response (100% activity). There were also 16 wells of blanks i.e. assay buffer without either a test sample or reference agonist which correspond to the MIN signal response (0% activity). MAX and MIN controls are used for data analysis (RZ′ calculation) and normalization of compound activity.
For data analysis the response value is calculated as the maximum signal of the kinetic trace after the injection minus the median of the points before injection and multiplied by the normalization factor (NF). The normalisation factor is the baseline mean of all wells in the plate divided by the baseline of a specific well. […]
The EC50 of the test samples was then calculated using a curve fitting program available within the data analysis software.

Another assay has as its system panel of 84 subjects. The assay can be described thus: Comparison of sensations between isopulegol and menthoxypropanediol (cool sensation in the nose). It counts as in vivo, human. The conditions noted are these: 3% in triethyl citrate, isopulegol compared to menthoxypropanediol, ANOVA p<0.05. Here is the method: A panel of 84 subjects was selected to take part in a comparative test between isopulegol (available as Coolact (registered trademark) P) and menthoxypropanediol (CAS 87061-04-9, available as Coolact (registered trademark) 10), both known for their cooling effect on skin.
The samples of isopulegol and menthoxypropanediol were prepared by dilution to 3% in Triethyl Citrate (TEC).
Panelists also had to score whether they perceived a cool sensation in the nose, on a scale of +100 (very cool) to −100 (very hot) with 0 (neutral) on the middle of the scale.

T1 sequence (Q7Z2W7 whole entry): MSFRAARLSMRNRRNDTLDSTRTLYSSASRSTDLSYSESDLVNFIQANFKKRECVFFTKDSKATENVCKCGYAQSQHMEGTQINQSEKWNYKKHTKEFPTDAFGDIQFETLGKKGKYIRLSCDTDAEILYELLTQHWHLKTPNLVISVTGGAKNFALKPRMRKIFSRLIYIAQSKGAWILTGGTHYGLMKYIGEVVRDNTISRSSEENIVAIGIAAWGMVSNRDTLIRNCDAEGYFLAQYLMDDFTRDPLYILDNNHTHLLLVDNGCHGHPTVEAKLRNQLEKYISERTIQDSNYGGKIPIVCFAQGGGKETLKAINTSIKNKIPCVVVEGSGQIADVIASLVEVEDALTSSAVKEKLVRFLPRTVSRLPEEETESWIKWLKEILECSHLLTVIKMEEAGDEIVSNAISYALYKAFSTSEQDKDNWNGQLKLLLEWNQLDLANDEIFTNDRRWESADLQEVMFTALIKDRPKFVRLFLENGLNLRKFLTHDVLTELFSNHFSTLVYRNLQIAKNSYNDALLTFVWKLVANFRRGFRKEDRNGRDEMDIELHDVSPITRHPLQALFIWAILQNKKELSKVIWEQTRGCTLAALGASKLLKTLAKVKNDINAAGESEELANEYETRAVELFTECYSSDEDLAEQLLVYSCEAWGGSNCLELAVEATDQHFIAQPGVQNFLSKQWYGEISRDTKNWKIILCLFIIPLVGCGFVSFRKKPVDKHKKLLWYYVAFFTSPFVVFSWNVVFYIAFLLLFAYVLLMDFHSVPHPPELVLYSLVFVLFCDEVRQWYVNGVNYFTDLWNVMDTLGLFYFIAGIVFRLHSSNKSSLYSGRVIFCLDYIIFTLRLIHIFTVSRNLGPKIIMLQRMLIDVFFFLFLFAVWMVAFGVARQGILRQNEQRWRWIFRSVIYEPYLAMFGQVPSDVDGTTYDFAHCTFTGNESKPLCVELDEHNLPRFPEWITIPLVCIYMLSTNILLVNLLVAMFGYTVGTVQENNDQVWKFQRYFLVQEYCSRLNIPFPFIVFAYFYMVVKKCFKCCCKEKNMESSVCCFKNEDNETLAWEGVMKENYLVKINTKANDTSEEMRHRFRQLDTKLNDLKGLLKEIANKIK

With `C=C(C)[C@@H]1CC[C@@H](C)C[C@H]1O` (racemic) [Isopulegol, isopulegol], on human TRPM8, the “TRPM8 activation (in words)” value is “activate TRPM8”. In addition, in the assay on panel of 84 subjects, the “cooling perception in the nose (in words)” value is listed as “improved cooling perception”.

Take `CC(C)[C@@H]1CC[C@@H](C)C[C@H]1OCC(O)CO` (some centres unmarked) [Menthoxypropanediol, menthoxypropanediol]: on human TRPM8, the “TRPM8 activation (in words)” value was “activate TRPM8” and the concentration giving a half-maximal response (EC50) (as a rule, the midpoint of the concentration-response curve) was 7.7 µM. On to `CCNC(=O)C1CC(C)CCC1C(C)C` (centres unmarked) [WS3, N ethyl-p-menthane-3-carboxamide], for which the EC50 on human TRPM8 amounted to 6 µM.
